Here are results for 3 molecules from US10874745B2, “Antimicrobial peptides and methods of treating gram-negative pathogens: polar and non-polar face analogs” (priority 2017, dated 2020).

Values after ≈ are worked out from the molar mass of the structure shown. Values joined by “and” are separate entries in the source; they are usually repeats but may differ in a detail not shown here. Identical values can stand only once. Like-named read-outs stand apart in the source and are kept apart here. Non-standard residues stand in square brackets, D forms with d. Residues, ends and D or L forms follow the SMILES beside them. dDab = NCC[C@@H](N)C(=O)O

A short description of one data set: Hemolytic activity. Type of data set: cell-based, human. The note with it: 1% human erythrocytes (red blood cells), pH 7.4. The protocol:
(§1) Hemoglobin release was determined spectrophotometrically at 570 nm. […] […] […] With the peptides used in this study the inventors used the HC30/MIC ratio value to calculate the therapeutic index.

The test system of a further data set is human red blood cells. Kind of data set: Hemolytic activity. Format: cell-based. As to the method: as §1
Data set [1] has as its system A. baumannii strains resistant to Polymyxin B and Colistin. Format: cell-based.
Text: Gram-Negative Bacterial Strains used in this Study: All the A. baumannii strains used in this study were 1) obtained from the collection of Dr. Anthony A. Campagnari at the University of Buffalo and originally isolated from different patients and organs/tissues (strain 649, blood; strain 689, groin; strain 759, gluteus; strain 884, axilla; strain 985, pleural fluid); 2) were purchased from the American Type Culture Collection (ATCC, Manassas, Va., USA) (strain ATCC 17978, fatal meningitis; and strain ATCC 19606, urine); 3) obtained from MERCK (M89941, M89949, M89951, M89952, M89953, M89955 and M89963). These seven A. baumannii strains were resistant to polymyxin B and polymyxin E (Colistin).
Measurement of Antimicrobial Activity (MIC): The minimal inhibitory concentration (MIC) is defined as the lowest peptide concentration that inhibited bacterial growth. MICs were measured by a standard microtiter dilution method in Mueller Hinton (MH) medium. Briefly, cells were grown overnight at 37° C. in MH broth and were diluted in the same medium. […] The plates were incubated at 37° C. for 24 h, and the MICs were determined.

`CC(=O)N[C@H](CCCCN)C(=O)N[C@H](CC(C)C)C(=O)N[C@H](CCN)C(=O)N[C@H](CO)C(=O)N[C@H](CC(C)C)C(=O)N[C@H](CC(C)C)C(=O)N[C@H](CCN)C(=O)N[C@@H](C(=O)N[C@H](CC(C)C)C(=O)N[C@H](CO)C(=O)N[C@H](CCN)C(=O)N[C@H](C)C(=O)N[C@H](CCCCN)C(=O)N[C@H](C)C(=O)N[C@H](C)C(=O)N[C@H](CCCCN)C(=O)N[C@H](CC(C)C)C(=O)N[C@H](CCN)C(=O)N[C@@H](C(=O)N[C@H](CC(C)C)C(=O)N[C@H](CC(C)C)C(=O)N[C@H](CCN)C(=O)N[C@H](C)C(=O)N[C@H](CC(C)C)C(=O)N[C@H](CO)C(=O)N[C@H](CO)C(N)=O)[C@H](C)O)[C@H](C)O` [Peptide D102, Ac-KL(Dbu)SLL(Dbu)TLS(Dbu)AKAAKL(Dbu)TLL(Dbu)ALSS-amide] (Ac-[dK][dL][dDab][dS][dL][dL][dDab][dT][dL][dS][dDab][dA][dK][dA][dA][dK][dL][dDab][dT][dL][dL][dDab][dA][dL][dS][dS]-NH2): the HC50 at 18 h in “Hemolytic activity” (50% hemolysis of human red blood cells after 18 hours at 37° C., read-out: HC50) was > 2000 µg/mL and > 708 µM. Besides, the “Hemolysis of human red blood cells, in words” value in the data set on human red blood cells (FIG. 10) is on record as “basically no hemolysis”.

As for `CC(=O)N[C@H](CCCCN)C(=O)N[C@H](CC(C)C)C(=O)N[C@H](CCCCN)C(=O)N[C@H](CO)C(=O)N[C@H](CC(C)C)C(=O)N[C@H](CC(C)C)C(=O)N[C@H](CCCCN)C(=O)N[C@@H](C(=O)N[C@H](CC(C)C)C(=O)N[C@H](CO)C(=O)N[C@H](C)C(=O)N[C@H](C)C(=O)N[C@H](CCCCN)C(=O)N[C@H](CCCCN)C(=O)N[C@H](CCCCN)C(=O)N[C@H](CCCCN)C(=O)N[C@H](CC(C)C)C(=O)N[C@H](C)C(=O)N[C@@H](C(=O)N[C@H](CC(C)C)C(=O)N[C@H](CC(C)C)C(=O)N[C@H](CCCCN)C(=O)N[C@H](C)C(=O)N[C@H](CC(C)C)C(=O)N[C@H](CO)C(=O)N[C@H](CCCCN)C(N)=O)[C@H](C)O)[C@H](C)O` [Peptide D88, Ac-KL(Lys)SLL(Lys)TLSAAK(Lys)(Lys)KLATLL(Lys)ALS(Lys)-amide] (Ac-[dK][dL][dK][dS][dL][dL][dK][dT][dL][dS][dA][dA][dK][dK][dK][dK][dL][dA][dT][dL][dL][dK][dA][dL][dS][dK]-NH2), the MIC in data set [1] (strain MB9941 (Table 9C)) worked out at 0.7 µM (≈ 2.01 µg/mL); in data set [1] (strain MB9949 (Table 9C)), 0.7 µM (≈ 2.01 µg/mL); in data set [1] (strain MB9951 (Table 9C)), 0.3 µM (≈ 0.86 µg/mL); in data set [1] (strain MB9952 (Table 9C)), 0.3 µM (≈ 0.86 µg/mL); in data set [1] (strain MB9953 (Table 9C)), 0.3 µM (≈ 0.86 µg/mL); in data set [1] (strain MB9955 (Table 9C)), 0.3 µM (≈ 0.86 µg/mL). The molecule further registered an MIC in data set [1] (strain MB9963 (Table 9C)) of 0.3 µM (≈ 0.86 µg/mL). The 50% haemolytic concentration (HC50) at 18 h in “Hemolytic activity” (human) was 231 µg/mL and 80.6 µM. Further, in the data set with human red blood cells, the HC50 worked out at 80.6 µM.

With `CC(=O)N[C@H](CCCCN)C(=O)N[C@H](CC(C)C)C(=O)N[C@H](CCN)C(=O)N[C@H](CO)C(=O)N[C@H](CC(C)C)C(=O)N[C@H](CC(C)C)C(=O)N[C@H](CCN)C(=O)N[C@@H](C(=O)N[C@H](CC(C)C)C(=O)N[C@H](CO)C(=O)N[C@H](CCN)C(=O)N[C@H](C)C(=O)N[C@H](CCCCN)C(=O)N[C@H](C)C(=O)N[C@H](C)C(=O)N[C@H](CCCCN)C(=O)N[C@H](CC(C)C)C(=O)N[C@H](CCN)C(=O)N[C@@H](C(=O)N[C@H](CC(C)C)C(=O)N[C@H](CC(C)C)C(=O)N[C@H](CCN)C(=O)N[C@H](C)C(=O)N[C@H](CC(C)C)C(=O)N[C@H](CO)C(=O)N[C@H](CCN)C(N)=O)[C@H](C)O)[C@H](C)O` [Peptide D86, Ac-KL(Dbu)SLL(Dbu)TLS(Dbu)AKAAKL(Dbu)TLL(Dbu)ALS(Dbu)-amide] (Ac-[dK][dL][dDab][dS][dL][dL][dDab][dT][dL][dS][dDab][dA][dK][dA][dA][dK][dL][dDab][dT][dL][dL][dDab][dA][dL][dS][dDab]-NH2), the MIC in data set [1] (strain MB9941 (Table 9C)) was 0.7 µM (≈ 1.89 µg/mL); in data set [1] (strain MB9949 (Table 9C)), 0.7 µM (≈ 1.89 µg/mL); in data set [1] (strain MB9951 (Table 9C)), 1.4 µM (≈ 3.78 µg/mL); in data set [1] (strain MB9952 (Table 9C)), 0.7 µM (≈ 1.89 µg/mL); in data set [1] (strain MB9953 (Table 9C)), 1.4 µM (≈ 3.78 µg/mL); in data set [1] (strain MB9955 (Table 9C)), 0.7 µM (≈ 1.89 µg/mL). The same molecule yielded an MIC in data set [1] (strain MB9963 (Table 9C)) of 1.4 µM (≈ 3.78 µg/mL). The HC50 at 18 h in “Hemolytic activity” (human) was > 2000 µg/mL and > 742 µM. In addition, the HC50 in the data set on human red blood cells is over 741.5 µM; in the data set on human red blood cells (50% hemolysis of human red blood cells after 18 hours at 37° C.) it was over 742 µM.

Broadly, the HC50 is the concentration that lyses half of the red blood cells. By MIC is commonly meant the lowest concentration found to suppress growth.
